Several values for one entry are separate records, joined by “and”; a condition that tells them apart may be missing. Equal values may be shown once.
Legend:
[1] = Body weight changes in rat models of Aβ1-40-induced AD; assay type: in vivo; conditions: Aβ1-40 AD rats, treated group; baseline before the operation
Excerpt: Male Wistar rats (300-500 g) were used. The animals were maintained under standard conditions in the vivarium of the ESC “Institute of Biology and Medicine” of Taras Shevchenko National University of Kyiv. They were given ad libitum access to food and water.
Alzheimer's Disease was induced in old male rats (14 months old) by giving them intrahippocampal injections of aggregated Amyloid Beta (Aβ 1-40) Peptide (human) (Cayman Chemical Company) and Amyloid Beta (Aβ 25-35) Peptide (human) (Tocris Bioscience, Brostol). Aβ1-40 and Aβ 25-35 were dissolved in bidistilled water to the concentration of 15 μmol/L and incubated at 37° C. for 24 hours for aggregation. Aβ conglomerates were broken up by ultrasound and sterilized immediately prior to injection.
Rats were anesthetized using a mixture of ketamine (75 mg/kg, diluted in sterile water for injection, Sigma, USA) and 2% xylazine (100 μl/rat, Alfasan International B.V., Netherlands) administered intraperitoneally in a total volume of 1 ml. A rat was placed in a stereotaxic apparatus (SEZH-4) modified for rats. The animal was then scalped from the point of intersection of the sagittal suture with bregma (zero point): 2 mm distally, 2 mm laterally and 3.5 mm in depth and a trephine opening was made with an injection needle, directly into the hippocampus. […]

[2] = tested on: tyrosine hydroxylase (TH); experiment: Immunohistochemical identification of tyrosine hydroxylase in hippocampus, Aβ1-40-induced AD rats; assay type: in vivo, rat; conditions: Aβ1-40 AD rats; TH-positive hippocampal cells; individual animals 661 E, F, G; listed as Zn
Experimental: (§1) Degeneration of the hippocampal neurons was assessed using immunohistochemical analysis for the expression level of tyrosine hydroxylase (TH). Immunohistochemical staining was performed using primary anti-TH antibodies at a 1:200 dilution (Millipore, AB152). Endogenous peroxidase activity was blocked with a blocking reagent (Dako, EnVision Flex, DM821). Nonspecific antibody binding was blocked using 4% dry milk dissolved in Tris-buffered saline (TBS) containing 0.2% Triton X-100.
(§2) The primary antibody was diluted in TBS containing 0.2% Triton X-100 and applied to tissue sections. The sections were then incubated overnight (+4° C.). Secondary antibodies (anti-rabbit biotinylated antibodies, 1:200) were incubated for 60 minutes. The immunoreaction was developed using diaminobenzidine (Dako, EnVision) applied for 5 minutes. The results of immunohistochemical staining were evaluated at the light-optical level using a Zeiss Primo Star microscope. The intensity of TH-positive staining was evaluated using a semiquantitative scoring system as described in the Quantitative Scoring Method ([http://www.ihcworld.com/ihc_scoring.htm]) taking into account the number of positive (stained) cells and the intensity of staining (Table 1). The results were presented as a quick score (Q) calculated by the following formula: Q=P×I, where P is the percentage of positive cells and I is the staining intensity.

[3] = tested on: rat models of Aβ1-40-induced Alzheimer's disease; experiment: Barnes maze memory and cognitive flexibility tests, Aβ1-40-induced AD rats; assay type: in vivo; conditions: Aβ1-40 model; for Time spent near the entrance to the “escape box”, after surgery / Time spent near the entrance to the “escape box”, % of changes / Time spent near the entrance to the “escape box”, before surgery: cognitive flexibility; for Time spent near the entrance to the “escape box”, after surgery / Time spent to find the “escape box”, after surgery: after surgery and treatment; for Time spent near the entrance to the “escape box”, after surgery / Time spent near the entrance to the “escape box”, before surgery / Time spent to find the “escape box”, after surgery / Time spent to find the “escape box”, before surgery: M ± SD; for Time spent near the entrance to the “escape box”, % of changes / Time spent to find the “escape box”, % of changes: after vs before surgery; for Time spent near the entrance to the “escape box”, before surgery / Time spent to find the “escape box”, before surgery: baseline before surgery
Experimental: Kinga Gawel et al., Assessment of spatial learning and memory in the Barnes maze task in rodents-methodological consideration, Naunyn Schmiedebergs Arch Pharmacol. 2019; 392(1): 1-18. doi: 10.1007/s00210-018-1589-y.
The other holes remained open.
The rat was allowed to move freely around the table for 2-3 minutes.
Fifteen minutes after the habituation session, on the 2nd, 3rd and 4th days of the experiment, the task training was repeated 4 times every 15 minutes (min) (3 min on the table surface+1 min in the “escape box” with the light off).
The table surface was disinfected after each trial.
18 days after the operation, the animals had another 4-day training session (probe phase) with a changed location of the “escape box”.
The following time periods were measured in seconds: 1) the time the animal spent to find the entrance to the “escape box” (assessment of spatial learning and spatial memory associated with the hippocampal function); 2) the time the animal spent near the entrance (assessment of cognitive flexibility associated with the function of the frontal cortex of the brain)—the less time the animal spends near the closed entrance, the quicker it understands that it is necessary to look for escape elsewhere.

[4] = tested on: tyrosine hydroxylase (TH); experiment: Immunohistochemical identification of tyrosine hydroxylase in hippocampus, Aβ25-35-induced AD rats; assay type: in vivo, rat; conditions: Aβ25-35 AD rats
Experimental: as §1, §2

CD86 = CD86 expression in circulating phagocytes, Aβ25-35 model; assay type: in vivo, rat; conditions: Aβ25-35 AD rats
Experimental: The phenotypic profile of phagocytes of various localization was characterized by the expression of markers of functional maturity and metabolic polarization (CD206 and CD86), which was determined by flow cytometry and the use of monoclonal antibodies of appropriate specificity marked with fluorescent dyes (Abcam, Becton Dickinson).

[5] = tested on: rat models of Aβ25-35-induced Alzheimer's disease; experiment: Barnes maze memory and cognitive flexibility tests, Aβ25-35-induced AD rats; conditions: for Time spent near the entrance to the “escape box”, after surgery / Time spent near the entrance to the “escape box”, % of changes / Time spent near the entrance to the “escape box”, before surgery / Time spent to find the “escape box”, after surgery / Time spent to find the “escape box”, % of changes / Time spent to find the “escape box”, before surgery: Aβ25-35 model; for Time spent near the entrance to the “escape box”, after surgery / Time spent near the entrance to the “escape box”, % of changes / Time spent near the entrance to the “escape box”, before surgery: cognitive flexibility; for Time spent near the entrance to the “escape box”, after surgery / Time spent to find the “escape box”, after surgery: after surgery and treatment; for Time spent near the entrance to the “escape box”, after surgery / Time spent near the entrance to the “escape box”, before surgery / Time spent to find the “escape box”, after surgery / Time spent to find the “escape box”, before surgery: M ± SD; for Time spent near the entrance to the “escape box”, % of changes / Time spent to find the “escape box”, % of changes: after vs before surgery; for Time spent near the entrance to the “escape box”, before surgery / Time spent to find the “escape box”, before surgery: baseline before surgery
Excerpt: An animal learns to remember the location of the target zone (“escape box”) using peripheral visual cues in the testing area as reference points.
Barnes maze used consisted of a circular table with 16 circular holes around its circumference. Peripheral visual cues, such as black marks (a triangle on one wall and two parallel strips on the opposite wall), were placed for better orientation of the animal. Under one of the holes an “escape box” containing standard filler for animals was fixed. Each animal was assigned its number of the hole to which the “escape box” was fixed. The other holes remained open. Before performing the probe phase (after the operation), the number of the hole was changed.
On the 1st day of the experiment, during the first training of rats, a habituation session was performed, which was not repeated during the probe phase. A rat was placed in the center of the circular table and kept under a non-transparent hood for 10 seconds. The light above the table was then turned on and the hood lifted. The rat was allowed to move freely around the table for 2-3 minutes.
Fifteen minutes after the habituation session, on the 2nd, 3rd and 4th days of the experiment, the task training was repeated 4 times every 15 minutes (min) (3 min on the table surface+1 min in the “escape box” with the light off). The time during which the animal managed to reach the “escape box” was recorded at each trial.
Short-term memory of the animals was tested on the 5th day, and long-term memory was tested on the 9th day (5th day after the last training). All the holes of the maze were closed, and the rat was allowed to freely explore the open arena for 90 seconds to find “its” corresponding hole on the table top (under which the “escape box” was previously located) based on previously acquired skills. The amount of time the animal spent searching for the correct hole, and the time it spent near the hole was recorded. The table surface was disinfected after each trial.
18 days after the operation, the animals had another 4-day training session (probe phase) with a changed location of the “escape box”. As in the case before the operation, short-term memory was tested on the 5th day, and long-term memory was tested on the 9th day (5th day after the last training session).

[6] = long-term memory, 5 days following training
[7] = short-term memory, 24 hours following training

^64Zn-aspartate
body weight before the operation [1]: 432.1 ± 29.7 g
Q = P × I [2]: 4 and 2 and 6
Time spent near the entrance to the “escape box”, after surgery ([3]; 24 hours following training): 22.57 ± 7.77 s
Time spent near the entrance to the “escape box”, % of changes ([3]; 24 hours following training): −31.6%
Time spent near the entrance to the “escape box”, before surgery ([3]; 24 hours following training): 33 ± 7.39 s
Time spent near the entrance to the “escape box”, after surgery ([3]; 5 days following training): 29 ± 6.14 s
Time spent near the entrance to the “escape box”, % of changes ([3]; 5 days following training): 23.03%
Time spent near the entrance to the “escape box”, before surgery ([3]; 5 days following training): 23.57 ± 6.61 s
Time spent to find the “escape box”, after surgery [3, 6]: 5 ± 1.54 s
Time spent to find the “escape box”, % of changes [3, 6]: −70.59%
Time spent to find the “escape box”, before surgery [3, 6]: 17 ± 6.74 s
Time spent to find the “escape box”, after surgery [3, 7]: 4.14 ± 0.74 s
Time spent to find the “escape box”, % of changes [3, 7]: −42.04%
Time spent to find the “escape box”, before surgery [3, 7]: 7.14 ± 1.49 s
Q = P × I ([4]; TH-positive hippocampal cells, individual animals 663 A, B, listed as Zn): 6 and 4
staining intensity of TH-positive cells ([4]; hippocampus): no effect
tyrosine hydroxylase expression, Q value (group mean) ([4]; hippocampus): 5.0±1.4
expression of CD86 by circulating phagocytes (CD86): elevated
fraction of CD86+ cells among circulating phagocytes (CD86): increase
tendency towards impairment of long-term memory ([5]; Aβ25-35 AD rats): not improved
Time spent near the entrance to the “escape box”, after surgery ([5]; 24 hours following training): 30.67 ± 7.32 s
Time spent near the entrance to the “escape box”, % of changes ([5]; 24 hours following training): 12.2%
Time spent near the entrance to the “escape box”, before surgery ([5]; 24 hours following training): 27.33 ± 4.06 s
Time spent near the entrance to the “escape box”, after surgery ([5]; 5 days following training): 18.17 ± 5.38 s
Time spent near the entrance to the “escape box”, % of changes ([5]; 5 days following training): −40.76%
Time spent near the entrance to the “escape box”, before surgery ([5]; 5 days following training): 30.67 ± 4.32 s
Time spent to find the “escape box”, after surgery [5, 6]: 21.83 ± 12.53 s
Time spent to find the “escape box”, % of changes [5, 6]: 48.86%
Time spent to find the “escape box”, before surgery [5, 6]: 14.67 ± 3.53 s
Time spent to find the “escape box”, after surgery [5, 7]: 8.33 ± 5.76 s
Time spent to find the “escape box”, % of changes [5, 7]: −37.5%
Time spent to find the “escape box”, before surgery [5, 7]: 13.33 ± 7.8 s

Source: US20240285680A1, “METHOD OF TREATING ALZHEIMER'S DISEASE” (Vector Vitale IP LLC, priority 2021, published 2024)
